Assay results from patent US6372795B1, “Cosmetic compositions containing substituted amide derivatives” (Unilever Home and Personal Care USA, A Division of Conopco, …, priority 2000, dated 2002).
Values joined by “and” are separate entries in the source; they are usually repeats but may differ in a detail not shown here. Equal entries are not always repeated. Where two headings read alike, the source gives them in different places.

Test system: human sebocytes
Assay: Sebum suppression in secondary cultures of human sebocytes (14C-acetate label remaining in sebocytes)
Assay type: cell-based
Conditions: for sebum suppressive activity in the presence of a retinoid (combined with retinol): compared with compound alone, summary in words; for % of Control / activity at 1 µM / activity at 10 µM: human sebocytes; for activity at 1 µM / activity at 10 µM: Homo sapiens, read-out: % of Control
Experimental: Compounds A through G were tested for their potential to suppress sebum expression, alone or in the presence of a retinoid.
Secondary cultures of human sebocytes obtained from an adult […] were grown in 48-well tissue culture plates (Costar Corp.; Cambridge, Ma.) or 96-well tissue culture plates (Packard Co.; Meriden, Conn.) until confluent. Sebocyte growth medium consisted of Clonetics Keratinocyte Basal Medium (KBM) supplemented with 14 μg/ml bovine pituitary extract, 0.4 μg/ml hydrocortisone, 5 μg/ml insulin, 10 ng/ml epidermal growth factor, 1.2×10^-10 M cholera toxin, 100 units/ml penicillin, and 100 μg/ml streptomycin. All cultures were incubated at 37° C. in the presence of 7.5% CO2. Medium was changed three times per week.
On the day of experimentation, the growth medium was removed and the sebocytes washed three times with sterile Dulbecco's Modified Eagle Medium (DMEM; phenol red free). Fresh DMEM was added to each sample (duplicates, triplicates, or quadruplicates depending on the experiment) with 5 microliter of test agent solubilized in ethanol either alone or in the presence of one or 10 micromolar of retinol. Controls consisted of addition of ethanol alone, retinol alone, or phenol red, which has estrogen-like activity and is included as a positive control.
Each plate was returned to the incubator for 20 hours followed by the addition of 14C-acetate buffer (5 mM final concentration, 56 mCi/mmol specific activity). Sebocytes were returned to the incubator for four hours afterwhich each culture was rinsed three times with phosphate buffered saline to remove unbound label. Radioactive label remaining in the sebocytes was harvested and counted using a Beckman scintillation counter.

[1] = 1 μM test compound + 1 μM Retinol
[2] = 1 μM test compound + 10 μM Retinol
[3] = 1 μM test compound alone, 20 h + 4 h 14C-acetate
[4] = 10 μM test compound + 1 μM Retinol
[5] = 10 μM test compound + 10 μM Retinol

SMILES | sebum suppressive activity in the presence of a retinoid (combined with retinol) | activity at 1 µM [1] | activity at 1 µM [2] | activity at 1 µM [3] | activity at 10 µM (10 μM test compound alone) | other results
Cc1cccc(N2CCN(C(=O)CC3C=CC(CC(=O)N4CCN(c5cccc(C)c5)C(C)C4)C3)CC2C)c1 (centres unmarked) [G] | improved sebum suppressive activity |  |  |  |  | 
CC1=C(/C=C/C(C)=C/C=C/C(C)=C/CO)C(C)(C)CCC1 [Retinol, retinol, reference compound] |  |  |  |  |  | % of Control (1 μM Retinol alone): 99.9%; % of Control (10 μM Retinol alone): 103.7% and 100.9% and 100.1%; sebum suppressive activity (substance alone, summary in words of Tables 1-12): inactive
CCOC(=O)c1ccc(NC(=O)Nc2cccc(C(C)O)c2)cc1 (centres unmarked) [Compound D] | improved sebum suppressive activity | 82.8% | 78% | 82.4% | 58.5% | activity at 10 µM [4]: 66.8%; activity at 10 µM [5]: 25%
CCOC(=O)c1ccc(NC(=O)Nc2ccc(O)cc2)cc1 [Compound F] | improved sebum suppressive activity | 71% | 76.2% | 84% | 57.4% | % of Control [4]: 53.1% and 73.4%; % of Control [5]: 63.4% and 40.4%; % of Control (10 μM test compound alone, 10 µM): 72.0%
O=C(Nc1ccc(O)cc1)Nc1cccc(C(F)(F)F)c1 [Compound E] | improved sebum suppressive activity |  |  |  |  | 
